In patent US7192906B2, “Substituted pyrazole derivatives, production process thereof, and herbicide compositions containing the derivatives” (SDS Biotech K.K., priority 2001, dated 2007):

How the values were obtained:
Assay type in all cases: in vivo
soybean (Glycine max) [1] = experiment: Test Example 2 upland soil treatment, crop phytotoxicity; details: Table 5, upland soil treatment, index 0-5
Protocol: (§1) A plastic pot of 130 cm^2 was filled with upland soil. Subsequently, weed seeds of Setaria viridis, Digitaria adscendens, Chenopodium album and Stellaria media, and crop seeds of soybean (Glycine max) and wheat (Triticum aestivum), were sowed and covered with soil of about 1 cm thickness. On the next day after the sowing, the wettable powder prepared in Formulation Example 1 was diluted with water such that the amount of the active ingredient became 1 kg per hectare, and then uniformly applied to the soil surface. On the 21st day after the application, observation and evaluation were carried out according to the aforesaid criteria.
(§2) Herbicidal activity was evaluated based on the following criteria.
(§3) • 5: herbicidal effect of not less than 90%, or phytotoxicity of 90% or more • 4: herbicidal effect of not less than 70% and less than 90%, or phytotoxicity of 70% or more and less than 90% • 3: herbicidal effect of not less than 50% and less than 70%, or phytotoxicity of 50% or more and less than 70% • 2: herbicidal effect of not less than 30% and less than 50%, or phytotoxicity of 30% or more and less than 50% • 1: herbicidal effect of not less than 10% and less than 30%, or phytotoxicity of 10% or more and less than 30% • 0: herbicidal effect of not less than 0% and less than 10%, or phytotoxicity of 0% or more and less than 10%

[2] = test system: wheat (Triticum aestivum); experiment: as above; details: Table 5, upland soil treatment, index 0-5
Protocol: as §1, §2, §3

soybean (Glycine max) [3] = experiment: Test Example 1 upland field foliage treatment, crop phytotoxicity; details: Table 4, upland field foliage treatment, index 0-5
How it was run: (§4)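 Seeds sown in upland soil in pots and covered with about 1 cm soil; on day 14 after sowing, diluted wettable powder applied uniformly to leaves at 1 kg active ingredient per hectare. Weed control or crop phytotoxicity scored visually 21 days after application on a 0–5 scale (5 = ≥90%, 0 = <10%).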

[4] = test system: wheat (Triticum aestivum); experiment: as above; details: Table 4, upland field foliage treatment, index 0-5
How it was run: as §4

Digitaria adscendens [5] = experiment: Test Example 1 upland field foliage treatment; details: Table 4, upland field foliage treatment, index 0-5
How it was run: as §4

Stellaria media [6] = experiment: Test Example 1 upland field foliage treatment; details: Table 4, upland field foliage treatment, index 0-5
How it was run: as §4

Chenopodium album [7] = experiment: Test Example 1 upland field foliage treatment; details: Table 4, upland field foliage treatment, index 0-5
How it was run: as §4

Setaria viridis [8] = experiment: Test Example 1 upland field foliage treatment; details: Table 4, upland field foliage treatment, index 0-5
How it was run: as §4

Digitaria adscendens [9] = experiment: Test Example 2 upland soil treatment; details: Table 5, upland soil treatment, index 0-5
Protocol: as §1, §2, §3

Stellaria media [10] = experiment: Test Example 2 upland soil treatment; details: Table 5, upland soil treatment, index 0-5
Protocol: as §1, §2, §3

Chenopodium album [11] = experiment: Test Example 2 upland soil treatment; details: Table 5, upland soil treatment, index 0-5
Protocol: as §1, §2, §3

Setaria viridis [12] = experiment: Test Example 2 upland soil treatment; details: Table 5, upland soil treatment, index 0-5
Protocol: as §1, §2, §3

CNC(=O)C(Cn1cc(C)c(-c2ccc(SC(F)(F)F)cc2)n1)=NOC [Compound 70]
Herbicidal activity (phytotoxicity) GM: Soybean (Glycine max) (soybean (Glycine max) [1]): 0 (herbicidal effect of not less than 0% and less than 10%, or phytotoxicity of 0% or more and less than 10%) | Herbicidal activity (phytotoxicity) TA: Wheat (Triticum aestivum) [2]: 0 (herbicidal effect of not less than 0% and less than 10%, or phytotoxicity of 0% or more and less than 10%) | Herbicidal activity (phytotoxicity) GM: Soybean (Glycine max) (soybean (Glycine max) [3]): 0 (herbicidal effect of not less than 0% and less than 10%, or phytotoxicity of 0% or more and less than 10%) | Herbicidal activity (phytotoxicity) TA: Wheat (Triticum aestivum) [4]: 0 (herbicidal effect of not less than 0% and less than 10%, or phytotoxicity of 0% or more and less than 10%) | Herbicidal activity DA: Digitaria adscendens (Digitaria adscendens [5]): 5 (herbicidal effect of not less than 90%, or phytotoxicity of 90% or more) | Herbicidal activity SM: Stellaria media (Stellaria media [6]): 4 (herbicidal effect of not less than 70% and less than 90%, or phytotoxicity of 70% or more and less than 90%) | Herbicidal activity CA: Chenopodium album (Chenopodium album [7]): 5 (herbicidal effect of not less than 90%, or phytotoxicity of 90% or more) | Herbicidal activity SV: Setaria viridis (Setaria viridis [8]): 4 (herbicidal effect of not less than 70% and less than 90%, or phytotoxicity of 70% or more and less than 90%) | Herbicidal activity DA: Digitaria adscendens (Digitaria adscendens [9]): 3 (herbicidal effect of not less than 50% and less than 70%, or phytotoxicity of 50% or more and less than 70%) | Herbicidal activity SM: Stellaria media (Stellaria media [10]): 4 (herbicidal effect of not less than 70% and less than 90%, or phytotoxicity of 70% or more and less than 90%) | Herbicidal activity CA: Chenopodium album (Chenopodium album [11]): 4 (herbicidal effect of not less than 70% and less than 90%, or phytotoxicity of 70% or more and less than 90%) | Herbicidal activity SV: Setaria viridis (Setaria viridis [12]): 3 (herbicidal effect of not less than 50% and less than 70%, or phytotoxicity of 50% or more and less than 70%)

CNC(=O)C(Cn1cc(C)c(-c2ccc(C)c(F)c2)n1)=NOC [Compound 74]
Herbicidal activity (phytotoxicity) GM: Soybean (Glycine max) (soybean (Glycine max) [1]): 1 (herbicidal effect of not less than 10% and less than 30%, or phytotoxicity of 10% or more and less than 30%) | Herbicidal activity (phytotoxicity) TA: Wheat (Triticum aestivum) [2]: 0 (herbicidal effect of not less than 0% and less than 10%, or phytotoxicity of 0% or more and less than 10%) | Herbicidal activity (phytotoxicity) GM: Soybean (Glycine max) (soybean (Glycine max) [3]): 0 (herbicidal effect of not less than 0% and less than 10%, or phytotoxicity of 0% or more and less than 10%) | Herbicidal activity (phytotoxicity) TA: Wheat (Triticum aestivum) [4]: 0 (herbicidal effect of not less than 0% and less than 10%, or phytotoxicity of 0% or more and less than 10%) | Herbicidal activity DA: Digitaria adscendens (Digitaria adscendens [5]): 5 (herbicidal effect of not less than 90%, or phytotoxicity of 90% or more) | Herbicidal activity SM: Stellaria media (Stellaria media [6]): 5 (herbicidal effect of not less than 90%, or phytotoxicity of 90% or more) | Herbicidal activity CA: Chenopodium album (Chenopodium album [7]): 5 (herbicidal effect of not less than 90%, or phytotoxicity of 90% or more) | Herbicidal activity SV: Setaria viridis (Setaria viridis [8]): 5 (herbicidal effect of not less than 90%, or phytotoxicity of 90% or more) | Herbicidal activity DA: Digitaria adscendens (Digitaria adscendens [9]): 5 (herbicidal effect of not less than 90%, or phytotoxicity of 90% or more) | Herbicidal activity SM: Stellaria media (Stellaria media [10]): 5 (herbicidal effect of not less than 90%, or phytotoxicity of 90% or more) | Herbicidal activity CA: Chenopodium album (Chenopodium album [11]): 5 (herbicidal effect of not less than 90%, or phytotoxicity of 90% or more) | Herbicidal activity SV: Setaria viridis (Setaria viridis [12]): 4 (herbicidal effect of not less than 70% and less than 90%, or phytotoxicity of 70% or more and less than 90%)

CNC(=O)C(Cn1cc(C)c(-c2ccc(F)c(C)c2)n1)=NOC [Compound 75]
Herbicidal activity (phytotoxicity) GM: Soybean (Glycine max) (soybean (Glycine max) [1]): 1 (herbicidal effect of not less than 10% and less than 30%, or phytotoxicity of 10% or more and less than 30%) | Herbicidal activity (phytotoxicity) TA: Wheat (Triticum aestivum) [2]: 0 (herbicidal effect of not less than 0% and less than 10%, or phytotoxicity of 0% or more and less than 10%) | Herbicidal activity (phytotoxicity) GM: Soybean (Glycine max) (soybean (Glycine max) [3]): 0 (herbicidal effect of not less than 0% and less than 10%, or phytotoxicity of 0% or more and less than 10%) | Herbicidal activity (phytotoxicity) TA: Wheat (Triticum aestivum) [4]: 0 (herbicidal effect of not less than 0% and less than 10%, or phytotoxicity of 0% or more and less than 10%) | Herbicidal activity DA: Digitaria adscendens (Digitaria adscendens [5]): 5 (herbicidal effect of not less than 90%, or phytotoxicity of 90% or more) | Herbicidal activity SM: Stellaria media (Stellaria media [6]): 5 (herbicidal effect of not less than 90%, or phytotoxicity of 90% or more) | Herbicidal activity CA: Chenopodium album (Chenopodium album [7]): 5 (herbicidal effect of not less than 90%, or phytotoxicity of 90% or more) | Herbicidal activity SV: Setaria viridis (Setaria viridis [8]): 5 (herbicidal effect of not less than 90%, or phytotoxicity of 90% or more) | Herbicidal activity DA: Digitaria adscendens (Digitaria adscendens [9]): 4 (herbicidal effect of not less than 70% and less than 90%, or phytotoxicity of 70% or more and less than 90%) | Herbicidal activity SM: Stellaria media (Stellaria media [10]): 5 (herbicidal effect of not less than 90%, or phytotoxicity of 90% or more) | Herbicidal activity CA: Chenopodium album (Chenopodium album [11]): 5 (herbicidal effect of not less than 90%, or phytotoxicity of 90% or more) | Herbicidal activity SV: Setaria viridis (Setaria viridis [12]): 4 (herbicidal effect of not less than 70% and less than 90%, or phytotoxicity of 70% or more and less than 90%)

CNC(=O)C(Cn1cc(C)c(-c2ccc(F)cc2Cl)n1)=NOC [Compound 82]
Herbicidal activity (phytotoxicity) GM: Soybean (Glycine max) (soybean (Glycine max) [1]): 0 (herbicidal effect of not less than 0% and less than 10%, or phytotoxicity of 0% or more and less than 10%) | Herbicidal activity (phytotoxicity) TA: Wheat (Triticum aestivum) [2]: 0 (herbicidal effect of not less than 0% and less than 10%, or phytotoxicity of 0% or more and less than 10%) | Herbicidal activity (phytotoxicity) GM: Soybean (Glycine max) (soybean (Glycine max) [3]): 0 (herbicidal effect of not less than 0% and less than 10%, or phytotoxicity of 0% or more and less than 10%) | Herbicidal activity (phytotoxicity) TA: Wheat (Triticum aestivum) [4]: 0 (herbicidal effect of not less than 0% and less than 10%, or phytotoxicity of 0% or more and less than 10%) | Herbicidal activity DA: Digitaria adscendens (Digitaria adscendens [5]): 5 (herbicidal effect of not less than 90%, or phytotoxicity of 90% or more) | Herbicidal activity SM: Stellaria media (Stellaria media [6]): 4 (herbicidal effect of not less than 70% and less than 90%, or phytotoxicity of 70% or more and less than 90%) | Herbicidal activity CA: Chenopodium album (Chenopodium album [7]): 4 (herbicidal effect of not less than 70% and less than 90%, or phytotoxicity of 70% or more and less than 90%) | Herbicidal activity SV: Setaria viridis (Setaria viridis [8]): 3 (herbicidal effect of not less than 50% and less than 70%, or phytotoxicity of 50% or more and less than 70%) | Herbicidal activity DA: Digitaria adscendens (Digitaria adscendens [9]): 5 (herbicidal effect of not less than 90%, or phytotoxicity of 90% or more) | Herbicidal activity SM: Stellaria media (Stellaria media [10]): 5 (herbicidal effect of not less than 90%, or phytotoxicity of 90% or more) | Herbicidal activity CA: Chenopodium album (Chenopodium album [11]): 4 (herbicidal effect of not less than 70% and less than 90%, or phytotoxicity of 70% or more and less than 90%) | Herbicidal activity SV: Setaria viridis (Setaria viridis [12]): 4 (herbicidal effect of not less than 70% and less than 90%, or phytotoxicity of 70% or more and less than 90%)

CNC(=O)C(Cn1cc(C)c(-c2ccc(F)c(Br)c2)n1)=NOC [Compound 83]
Herbicidal activity (phytotoxicity) GM: Soybean (Glycine max) (soybean (Glycine max) [1]): 0 (herbicidal effect of not less than 0% and less than 10%, or phytotoxicity of 0% or more and less than 10%) | Herbicidal activity (phytotoxicity) TA: Wheat (Triticum aestivum) [2]: 0 (herbicidal effect of not less than 0% and less than 10%, or phytotoxicity of 0% or more and less than 10%) | Herbicidal activity (phytotoxicity) GM: Soybean (Glycine max) (soybean (Glycine max) [3]): 0 (herbicidal effect of not less than 0% and less than 10%, or phytotoxicity of 0% or more and less than 10%) | Herbicidal activity (phytotoxicity) TA: Wheat (Triticum aestivum) [4]: 0 (herbicidal effect of not less than 0% and less than 10%, or phytotoxicity of 0% or more and less than 10%) | Herbicidal activity DA: Digitaria adscendens (Digitaria adscendens [5]): 5 (herbicidal effect of not less than 90%, or phytotoxicity of 90% or more) | Herbicidal activity SM: Stellaria media (Stellaria media [6]): 4 (herbicidal effect of not less than 70% and less than 90%, or phytotoxicity of 70% or more and less than 90%) | Herbicidal activity CA: Chenopodium album (Chenopodium album [7]): 4 (herbicidal effect of not less than 70% and less than 90%, or phytotoxicity of 70% or more and less than 90%) | Herbicidal activity SV: Setaria viridis (Setaria viridis [8]): 3 (herbicidal effect of not less than 50% and less than 70%, or phytotoxicity of 50% or more and less than 70%) | Herbicidal activity DA: Digitaria adscendens (Digitaria adscendens [9]): 5 (herbicidal effect of not less than 90%, or phytotoxicity of 90% or more) | Herbicidal activity SM: Stellaria media (Stellaria media [10]): 5 (herbicidal effect of not less than 90%, or phytotoxicity of 90% or more) | Herbicidal activity CA: Chenopodium album (Chenopodium album [11]): 5 (herbicidal effect of not less than 90%, or phytotoxicity of 90% or more) | Herbicidal activity SV: Setaria viridis (Setaria viridis [12]): 5 (herbicidal effect of not less than 90%, or phytotoxicity of 90% or more)
